# Results published in patent publication US8993741B2, “SMNdelta7 degron: novel compositions and methods of use” (The Trustees of the University of Pennsylvania, priority 2009, dated 2015).
# Peptide text beside a SMILES is read from it. * marks the point of attachment. Cbz = O=C(OCc1ccccc1)*
# Columns and labels:
# SMNΔ7^S270A = test: MG132 effect on amount of HA-tagged SMNΔ7^S270A (Western blot); assay type: cell-based, human; conditions: 10 μM MG132, 16 hours, 293T cells
# Experimental: (§1) FIG. 3, comprising FIG. 3A through FIG. 3D, is a series of images depicting the importance of residue S270 for the activity of the SMNΔ7-DEG through YG+EMLA. FIG. 3A is a schematic illustration depicting seven residues in the YG box that were each mutated to alanine, as indicated. […] depicts the results of Western blot analyses using an anti-HA tag antibody directed against HA-tagged SMN, SMNΔ7, and SMNΔ7^S270A expressed in 293T cells treated with DMSO or 10 μM MG132 (MG) for 16 hours. Fusion proteins were monitored by, and Magoh was used as a control. FIG. 3C is a graph depicting the quantification of HA-tagged proteins depicted in FIG. 3B and compared to HA-SMN without MG132 treatment. Protein amount (%) for SMNΔ7, and SMNΔ7^S270A are calculated relative to HA-SMN not treated with MG132, that is arbitrarily set to 100%. The fold change of each fusion protein amount upon MG132 treatment is indicated in red above the column. […]
# (§2) To identify specific residues in the SMN07-DEG that are important for its activity, mutagenesis of the YG box was performed wherein every second residue was converted to alanine in the context of full-length SMNΔ7 and determined the half-life of each in 293T cells. […] The levels of the tagged SMN proteins were then monitored by Western blots using anti-HA antibody (FIG. 3B).
# Luc-SMNΔ7 = Luc-SMNΔ7 degradation with proteolysis inhibitors in the presence of CHX; assay type: cell-based, human; conditions: for effect on decrease in Luc-SMNΔ7 signal: 5 hours in the presence of CHX
# Experimental: FIG. 5 is a graph depicting the effect of proteasome inhibitors on inhibiting SMNΔ7 degradation. Luciferase activity is measured after application of proteasome inhibitors (MG132 and Lactacystin), the calpain inhibitor (Calpeptin), the autophagy inhibitor (3-methyladenine; 3-MA), and the lysosomal inhibitor (ammonium chloride; NH4Cl) in the presence of CHX for 5 hours. Error bars represent SDs from three independent experiments.
# (§3) Cells (293T cells) were transfected with plasmids expressing various constructs including Luc-SMN, Luc-SMNΔ7, GFP-YG+EMLA or GFP-NS. Forty-eight hours after transfection, the cells were treated with CHX (0.1 mg/ml) for various times as indicated and then assayed for luciferase activity. Luciferase activity at each time point was calculated by comparison to those at time 0, which was set to 100%. Luciferase activities were measured using One-Glo reagent (Promega).
# SMN was previously shown to be degraded by the proteasome (Burnett et al., 2009, Mol Cell Biol 29(5):1107-15; Chang et al., 2004, Neurochem. Int. 45(7):1107-12). To determine if SMNΔ7 is also degraded by this system, cells expressing Luc-SMNΔ7 were treated with proteasome inhibitors including MG132 and Lactaeystin, for 5 hours in the presence of CHX. […] Inhibitors of other proteolytic activities, such as lysosomal proteases, autophagy, and calpain (N1-14Cl, 3-methyladenine, and calpeptin, respectively) had no effect.
# SMN = test: MG132 effect on amount of HA-tagged SMN (Western blot); assay type: cell-based, human; conditions: 10 μM MG132, 16 hours, 293T cells
# Experimental: as §1, §2
# SMNΔ7 = test: MG132 effect on amount of HA-tagged SMNΔ7 (Western blot); assay type: cell-based, human; conditions: 10 μM MG132, 16 hours, 293T cells
# Experimental: as §1, §2
# S5 cells = test: Rescue of S5 cell viability after tetracycline depletion of SMN; assay type: cell-based, chicken; conditions: retroviral expression, one week after tetracycline (1 μg/ml)
# Experimental: FIG. 4, comprising FIG. 4A through FIG. 4D, is a series of images depicting the functionality of SMNΔ7^S270A in snRNP assembly and its ability to rescue SMN-deficient cells. FIG. 4 A is a series of panels depicting S5 cells cultured in the presence of tetracycline (1 μg/ml) to deplete endogenous SMN and infected with retroviruses expressing SMN, SMNΔ7, or SMNΔ7^S270A. FIG. 4B is a graph depicting cell growth as in FIG. 4A measured by monitoring the number of live cells at the indicated time points following tetracycline addition. FIG. 4C depicts the results of Western blot analyses of SMN protein in rescued cells (10 days after tetracycline addition). FIG. 4D is a graph depicting SMN complex activity (%) as measured by in vitro snRNP assembly on U4 snRNA in cytoplasmic extracts from rescued cells, using U4ΔSm RNA as a control.
# S5 cells were maintained and infected with retroviruses expressing SMN, SMNΔ7, and SMNΔ7^S270A as described (Wang et al., 2001, J. Biol. Chem. 276:9599).
# To determine whether SMNΔ7^S270A is a functional SMN protein, a previously established cell system, the S5 cell line, was used to investigate if SMNΔ7^S270A could rescue the viability of SMN-depleted cells. […]
# 293T cells = test: Protein stability assay: luciferase activity of Luc-fused constructs after CHX treatment; assay type: cell-based
# From the text: To construct plasmids expressing Luc-fused proteins, the luciferase gene was cloned into pcDNA3.1 vector at HindIII/KpnI sites, then DNA fragments encoding full-length wild type human SMN, SMNΔ7, several deletion mutants of SMNΔ7, and optiPEST were inserted into the KpnI/XhoI sites. SMNΔ7 mutants with single amino acid change were generated by mutating residues in YG+EMLA to alanine by Quickchange site-directed mutagenesis kit (Stratagene).
# as §3
# A reporter system that recapitulates the differential stability of full-length SMN and SMNΔ7 and allows quantitative assessment of SMNΔ7's instability determinants was developed. […] Forty-eight hours after transfection, cells were treated with the protein synthesis inhibitor cycloheximide (CHX), and luciferase activity was measured at time intervals of up to 10 hours. […]
molecule,measurement,setting,value
CC(C)C[C@@H](C=O)NC(=O)[C@H](CC(C)C)NC(=O)[C@H](CC(C)C)NC(=O)OCc1ccccc1 [MG132] (Cbz-Leu-Leu-Leu-aldehyde),effect on the amount of SMNΔ7^S270A,SMNΔ7^S270A,only a moderate effect
same,effect on decrease in Luc-SMNΔ7 signal,Luc-SMNΔ7,much smaller decrease
same,effect on the amount of SMN,SMN,only a moderate effect
same,increase in the amount of SMNΔ7,SMNΔ7,3.4 fold
CCCC[C@@H](C=O)NC(=O)[C@H](CC(C)C)NC(=O)OCc1ccccc1 [calpeptin],effect on decrease in Luc-SMNΔ7 signal,Luc-SMNΔ7,no effect
"SMN: full-length wild type human survival of motor neurons protein, tested as Luc- or HA-fusion or retrovirally expressed",rescue of viability of SMN-depleted S5 cells,S5 cells,rescued the viability of S5 cells
same,half-life (t1/2),"293T cells; Luc fusion in 293T cells, CHX 0.1 mg/ml, up to 10 hours",> 8 h
same,amount of SMN relative to SMNΔ7,293T cells; after 10 hours of CHX chase,3 times
"Cl.N [N1-14Cl, ammonium chloride]",effect on decrease in Luc-SMNΔ7 signal,Luc-SMNΔ7,no effect
"C[C@@H]1C[C@@H]([C@H](O)CC2CC(=O)NC(=O)C2)C(=O)[C@@H](C)C1 [CHX, cycloheximide]",decrease in signal (luciferase),"Luc-SMNΔ7; CHX alone, 5 hours, cells expressing Luc-SMNΔ7",60%
Cn1cnc(N)c2ncnc1-2 [3-methyladenine],effect on decrease in Luc-SMNΔ7 signal,Luc-SMNΔ7,no effect
CC(=O)N[C@@H](CSC(=O)[C@]1([C@@H](O)C(C)C)NC(=O)[C@H](C)[C@@H]1O)C(=O)O [Lactacystin],effect on decrease in Luc-SMNΔ7 signal,Luc-SMNΔ7,much smaller decrease
